Reference: US20230107770A1, “METHOD OF ENHANCING IMMUNOTHERAPY USING ER STRESS PATHWAY INHIBITORS” (H. LEE MOFFITT CANCER CENTER AND RESEARCH INSTITUTE, INC., priority 2020, published 2023)

Assays:
[1] = tested on: B16 tumors; experiment: s.c. B16 melanoma tumor model in mice; format: in vivo
[2] = tested on: FSHR+-ID8-Defb29/Vegfa ovarian tumors; experiment: ER stress-targeting therapy combined with FSH-CER T cells in ovarian tumor-bearing mice; format: in vivo; settings: MKC8866 i.p. 300 mg/kg or AMG-44 i.p. 12 mg/kg daily for one week; FSH-CER T cells days 7 and 14
Protocol: The role of the PERK-Chop in the expansion of tumor TRM cells using conditional T cell Chop-null mice was evaluated. In agreement with the inhibitory effect of Chop in TRM development, higher frequency of TRM cells was detected in tumors from T cell-Chop^KO mice compared to controls (FIG. 23A). Next, we tested the effect of the inhibition of PERK (AMG-44) and IRE 1α (MKC8866) during the expansion of IL-2-supplemented human FSH-CER T cells. […] Also, we evaluated the therapeutic effect of the combination of ER stress-targeting therapy and FSH-CER. […]
Activation of the UPR in cancer cells mediates adaptation processes in the TME, whereas UPR priming in tumor-myeloid cells promotes their immunoregulatory activity. […] As main readouts of therapeutic efficacy, we will monitor tumor burden, overall survival, and tumor CER-T cell infiltration, persistence, and cytotoxic capacity (Exp. C.2.1.1). […] Additionally, we will sort DCs and MDSC from tumor sites and lymphoid organs to quantify the expression of ER stress gene markers, their ability to impair T cell proliferation and IFNγ production, and the levels of the UPR-related immunoinhibitory factors IL-6, PGE2, Cox-2, mPGES-1, and Arginase I. All required methods are established by our groups. […]

[3] = tested on: human FSH-CER T cells; experiment: Expansion of IL-2-supplemented human FSH-CER T cells with ER stress inhibitors; format: cell-based; settings: treatment for 5 days
Protocol: The role of the PERK-Chop in the expansion of tumor TRM cells using conditional T cell Chop-null mice was evaluated. In agreement with the inhibitory effect of Chop in TRM development, higher frequency of TRM cells was detected in tumors from T cell-Chop^KO mice compared to controls (FIG. 23A). Next, we tested the effect of the inhibition of PERK (AMG-44) and IRE 1α (MKC8866) during the expansion of IL-2-supplemented human FSH-CER T cells. […] Also, we evaluated the therapeutic effect of the combination of ER stress-targeting therapy and FSH-CER. Thus, mice bearing FSHR+-ID8-Defb29/Vegfa ovarian tumors for 7 days received daily treatments with MKC8866 (i.p., 300 mg/kg) or AMG-44 (i.p. 12 mg/kg) for one-week, and i.p. transfer of FSH-CER T cells at days 7 and 14 post-tumor challenge. […] We postulate that treatments for longer time periods with ER stress inhibitors will further potentiate the effect of FSH-CER T cells

[4] = tested on: murine BM-MDSC; experiment: In vitro suppression assay with murine BM-MDSC; format: cell-based, mouse
Protocol: Mouse BM-MDSC were generated after culturing BM precursors with GM-CSF and G-CSF (20 ng/ml each) for 4 days. In vitro generated MDSC were treated with either LLC tumor explant supernatants (TES, since day 0) or Thaps (200 nM, for the last 24 hours of culture). Human BM-MDSC were developed after culturing BM or peripheral blood precursors from healthy donors with GM-CSF and IL-6 (10 ng/ml each) for a period of 6 days (Thevenot et al., 2014). To induce UPR activation, MDSC were treated with either supernatants from renal cell carcinoma cells 786-0 (hTES) for 6 days (Rodriguez et al., 2009) or Thaps during the last 24 hours before collection (200 nM). In some experiments, MDSC were pre-incubated for 3 hours with Resveratrol (100 μM, Sigma-Aldrich), D,L-Sulphoraphane (20 μM), AMG-44 (5 μM), or TUDCA (500 nM) before treating with Thaps.
(§1) Murine BM-MDSC (ratio 1:1/8) or tumor-MDSC (ratio 1:1/4) were co-cultured with negatively selected CD3^+ T cells in a 96 well plate bound α-CD3 and α-CD28 (1 μg/ml each, eBioscience) for 3 days. T cell proliferation was assessed with Carboxyfluorescein succinimidyl ester (CFSE) or Cell-trace violet (Invitrogen) dye dilution detected by flow cytometry. For human studies, MDSC were co-cultured with enriched CD3^+ T cells activated with soluble α-CD3 (1 μg/ml, clone OKT3) and α-CD28 (0.5 μg/ml, clone L293) for 3 days in a 96 well plate bound with goat anti-mouse IgG (10 μg/ml). Results are expressed as percentage of proliferating T cells, determined by the dilution of fluorescence compared with non-stimulated T cells.

[5] = tested on: tumor-MDSC; experiment: Ex vivo suppression assay: tumor-MDSC co-cultured with primed CFSE-labeled T cells; format: cell-based, mice; settings: tumor-MDSC (1:1/4) from B16-bearing mice; AMG-44 12 mg/kg
Protocol: CD3^+ T cells were enriched using mouse or human T cell negative selection kits (MagniSort, Invitrogen) from the spleen and lymph nodes of C57BL/6 mice; or from purchased human buffy-coat units (One-Blood, Tampa, Fla.). Purity ranged between 95% and 99% as tested by flow cytometry. For antigen-specific priming studies, CD8^+ T cells were enriched using negative selection kits from the spleens of OT-I mice previously activated with OVA257-264 (SIINFEKL) for 48 hours. Tumor-MDSC were isolated from cellular suspensions of digested tumors followed by positive selection (MojoSort Streptavidin Nanobeads, Biolegend) using anti-Gr1 (Clone RB6-8C5, eBioscience) or anti-CD11b-biotinylated antibodies (Clone M1/70, StemCell Technologies, Vancouver). Also, M-MDSC (CD11b^+Gr1^+Ly6G^lowLy6C^high), PMN-MDSC (CD11b^+Gr1^+Ly6G^+Ly6C^low), macrophages (CD11b^+Gr1^negF4/80^+CD11c^neg), and myeloid DCs (CD11b^+Gr1^negF4/80^negCD11c^+) were sorted from tumors in a FACSAriaII (BD Biosciences).
as §1

Cc1ccc2cc(-c3c(C)ccc(C(=O)c4c(-c5ccccc5)n(C)n(-c5ccccc5)c4=O)c3N)ccc2n1 [AMG-44]
combination with anti-PD-L1 immunotherapy ([1]; B16-bearing mice, AMG-44 12 mg/kg plus 250 μg anti-PD-L1 every 3rd day): synergized with anti-PD-L1 immunotherapy | therapeutic anti-tumor action in Eif2ak3^KO-Lyz2 mice ([1]; B16, AMG-44 12 mg/kg): not in Eif2ak3^KO-Lyz2 counterparts | therapeutic anti-tumor action in PERK-competent mice ([1]; B16, AMG-44 12 mg/kg, Eif2ak3^Flox mice): detected in PERK-competent mice | tumor growth ([1]; B16, daily i.p. GSK2606414 25 mg/kg or AMG-44 12 mg/kg from day 7): delayed tumor growth | survival of hosts receiving FSH-CER T cells plus inhibitor [2]: Prolonged survival | frequency of FSH-CER TRM cells [3]: Higher frequency of FSH-CER TRM cells | ability of Thaps-treated BM-MDSC to impair T cell proliferation ([4]; BM-MDSC (1:1/8) exposed 3 hours to 5 μM AMG-44): overcame the ability of Thaps-treated BM-MDSC to impair T cell proliferation | MDSC-baseline activity ([4]; control BM-MDSC exposed 3 hours to 5 μM AMG-44): without affecting MDSC-baseline activity | immunoinhibitory activity of tumor-MDSC [5]: impaired the immunoinhibitory activity of tumor-MDSC
